In patent US20250179022A1, “COMPOUND USED AS TYK2 INHIBITOR, PREPARATION METHOD THEREFOR, AND PHARMACEUTICAL USE THEREOF” (SHANGHAI ZHIGEN PHARMACEUTICAL & TECHNOLOGY CO. LTD., priority 2022, published 2025):
pIC50: −log10 of the molar value. Values after ≈ are worked out from the molar mass of the structure shown.

How the values were obtained:
[1] = Solubility in water (at pH=7); format: physicochemical
Description: Test Example 6: Solubility of the Compounds of the Invention in Water (at pH=7)

[2] = tested on: IFN-α-induced STAT phosphorylation; test: IFN-α-induced STAT phosphorylation in human whole blood; format: cell-based; details: for higher anti-inflammatory activity compared to the control BMS-986165: IFN-α-induced STAT phosphorylation in human whole blood, relative to BMS-986165; for pIC50: human whole blood, 20 ng/ml IFN-α, pSTAT5 in CD3-positive cells, read-out: IC50, IFN-α inflammatory pathway (IFN-α-induced STAT phosphorylation)
Description: The cytokine receptor attached to TYK2 mediates the signaling of type 1 interferon (IFN-α), which has been identified as the most important inflammatory factor of the autoimmune system. Human whole blood is induced with IFN-α, and TYK2 from lymphocytes in whole blood triggered STAT phosphorylation, which mediated subsequent inflammatory signaling. Therefore, TYK2 inhibitors have an inhibitory effect on IFN-α signaling, and the stronger the TYK2 inhibitory activity, the lower the level of STAT phosphorylation, and the stronger the corresponding anti-inflammatory effect.
In this experiment, the ability of the compounds to inhibit IFN-α-induced STAT phosphorylation in human whole blood were tested, and the IC50 values were calculated. The anti-inflammatory activity of the compounds was evaluated at the tissue level and evaluation of the inhibitory activity of compounds on the IFN-α inflammatory pathway based on the IC50 value.
The tested compound, powder and stored at room temperature, prepared into 10 mM stock solution with DMSO and stored at −80° C. in the refrigerator.
1× Fix/Lysis solution preparation: 5× Fix/Lysis and ddH2O were diluted according to 1:4 and preheated in 37° C. incubator, waiting for use.
Flow cytometric staining buffer preparation: 1 g of bovine serum albumin (BSA) and 1 mL of EDTA (0.5 M) solution were added to 500 mL of phosphate buffer solution (PBS) and stored at 4° C. in the refrigerator.
Compound dilution solution: 0.5 g of bovine serum albumin (BSA) was added to 500 mL of phosphate buffer solution (PBS), and stored at 4° C. in the refrigerator.
50 μg/mL IFN-alpha was diluted to 400 ng/mL with Compound Diluent and set aside.
67.5 μL of human whole blood was added to a 96-well plate using a 300 μL electric volley gun. 3.5 μL of prepared test compound was added, mixed well and placed in the cell culture incubator. After 60 min incubation, 400 ng/mL IFN-α (Biolegend 592702, final concentration 20 ng/ml) was added. The obtained was mixed well and placed in the cell culture incubator to continue incubation for 15 min.
After cytokine stimulation, 5 ul of PE-CD3 (BD 555333) antibody was added to each well, mixed and incubation was continued at 4° C. in the refrigerator. At the end, whole blood was transferred to a 96-well deep-well plate using a volley gun, pre-warmed 1× Fix/Lysis solution was added, and cells were lysed and fixed for 12 minutes at 37° C. in an incubator. After being washed, 400 μL of Perm III solution was added, vortexed and incubated on ice for 30 minutes. Cells were then stained by 100 μL of APC-pSTAT5 (1:100) antibody for 50 min at room temperature. This was followed by flow-through instrumentation. The expression of pSTAT5 was quantified by median fluorescence intensity after gating the CD3-positive signaling cluster.

[3] = In vivo pharmacokinetic experiments in Beagle dogs (oral); details: 2 mg/kg
Protocol: Experimental Methods: Healthy male Beagle dogs were randomly grouped into 3 […] in each group, and were given the test compounds orally. Before the gavage experiment, the dogs were fasted for 12 h, drank water freely, and were uniformly fed for 4 h after the administration of the drug. 0.083, 0.25, 0.5, 1.0, 2.0, 4.0, 6.0, 8.0, 10 and 24 h after administration; about 600 μL of blood was collected from the forelimb or hindlimb at the above set time points and placed in EDTA-K2 tubes, and the whole blood was collected and stored temporarily in an ice-water bath, and then centrifuged at least 3500 rpm for 10 min within 30 min, and the plasma was separated and frozen in a −70° C. refrigerator for testing.

[4] = In vivo pharmacokinetic experiment in rats (oral); design: species or system SD rats; details: 5 mg/kg
Protocol: Experimental method: Healthy male SD rats were randomly grouped into 3 rats in each group and given the test compound orally. The rats were fasted for 12 h before the gavage experiment, and drank water freely, and were fed uniformly for 4 h after the administration of the compounds. Before (0 h) and 0.25, 0.5, 1.0, 2.0, 4.0, 6.0, 8.0 and 24 h after the administration of the test compounds, 0.2 mL of blood was collected from the jugular vein at the above set time points and placed in EDTA-K2 tubes, and the whole blood was collected and stored temporarily in an ice-water bath, and then centrifuged at 11,000 rpm for 5 min within 30 min, the plasma was separated, and frozen at −70° C. in a refrigerator for testing.

| Solubility [1] | pIC50 [2] | AUC [3] | F [3] | Cmax ([3]; male, dog, plasma) | MRT ([3]; male, dog, plasma) | half-life ([3]; male, dog, plasma) | AUC [4] | F [4] | Cmax ([4]; male, SD, rat, plasma) | MRT ([4]; male, SD, rat, plasma) | half-life ([4]; male, SD, rat, plasma) | Structure (SMILES) | higher anti-inflammatory activity compared to the control BMS-986165 [2] |
| --- | --- | --- | --- | --- | --- | --- | --- | --- | --- | --- | --- | --- | --- |
| 22 µg/mL (≈ 48.3 µM) | 8.40 | 6684 ngh/mL | 117% | 485 ng/mL | 10.7 h | 7.26 h | 2644 ngh/mL | 103.8% | 651 ng/mL | 3.54 h | 2.48 h | [2H]C([2H])([2H])NC(=O)c1nnc(NC(=O)C2CC2)cc1Nc1nc(N)c(Cl)cc1[S@@](C)(=O)=NC [Example 28] | about 6 fold |
| – | 8.43 | – | – | – | – | – | – | – | – | – | – | [2H]C([2H])([2H])NC(=O)c1nnc(NC(=O)C2CC2)cc1Nc1nc(N)c(Cl)cc1[S@](C)(=N)=O [Example 29, (R)-4-((6-amino-5-chloro-3-(S-methylsulfoximino)pyridin-2-yl)amino)-6-(cyclopropylcarboxamido)-N-(methyl-d3)pyridazine-3-carboxamide] | about 6 fold |
